For assay [1], the target named is ENPP1 on MDA-MB-231 cells (Homo sapiens (Human), UniProt P22413). The assay can be described thus: Assay 3: inhibition of ENPP1 hydrolysis of AMP p-nitrophenyl ester on MDA-MB-231 cells.
Description: Hydrolysis of the p-nitrophenyl ester of AMP (pNP-AMP), an isostere of ATP, is selectively catalyzed by ENPP1 in the supernatant of MDA-MB-231 cell cultures. Inhibition of the hydrolysis of pNP-AMP by MDA-MB-231 at pH 7.4 and 37° C., is a good model of physiologically relevant activity of membrane-bound ENPP1 at disease-relevant expression levels.
MDA-MB-231 cells were harvested using TypLE Express Enzyme digestion and suspended in 100 μL of Leibovitz's L-15 Medium, 20% FBS, seeding the cells in a 96-well assay plate with 4.5×10^4 cells/well. Cells were incubated at 37° C. with 1% CO2 for 24 h. In a separate dilution plate, 2× of top dose of compound was prepared in phenol-red free 1640 medium without FBS and then 1:3 serial diluted in the same medium. The cell culture medium of L15 medium was aspirated carefully and cells were washed with PBS once, and 50 μL per well of test compound or DMSO blank were added to the assay plate. Substrate mix (50 μL; 0.5 mM pNP-AMP in phenol-red free 1640 media without FBS) was added for a pNP-AMP final concentration of 0.25 mM. The system was incubated at 37° C. for 3 h.
The target in assay [2] is T1, ENPP-1 ECD (Homo sapiens (Human), UniProt P22413). The assay is described as follows: Assay 2: inhibition of ENPP1 hydrolysis of 2′,3′-cGAMP (AMP-Glo, […] enzyme).
Description: Assay 2: Compared to the conditions in Assay 1, this assay has a larger dynamic range and ensures the system is under steady-state conditions by reducing the enzyme concentration in the assay.
Test compounds were plated in a 3× dilution scheme in a 384 well plate. […] AMP Detection solution (10 μL) was added to each well, the plate centrifuged and incubated for 60 min.
Assay [3] deals with T1, ENPP-1 ECD. The assay is described as follows: Assay 1: inhibition of ENPP1 hydrolysis of 2′,3′-cGAMP (AMP-Glo, […] enzyme).
Description: Assay 1: Test compounds were plated in a 3× dilution scheme in a 384 well plate. […] AMP Detection solution (100 μL) was added to each well, the plate centrifuged and incubated for 60 min.
Setting [4] is: read-out: Assay 3 (KI, app), apparent KI from IC50 via Cheng/Prusoff, pNP-AMP […], MDA-MB-231 cells, pH 7.4, 37° C., 3 h, unit inferred.
The mark [5] stands for this setting: read-out: Assay 2 (KI), ENPP1 hydrolysis of 2′,3′-cGAMP, AMP-Glo, […] ENPP-1, 24 μM cGAMP.
The mark [6] stands for this setting: read-out: Assay 2 (KI), inhibition of ENPP1 hydrolysis of 2′,3′-cGAMP, no unit in Table 18 (Table 17 legend for this assay uses nM).
Where [7] appears, read: Assay 2 (KI), ENPP1 hydrolysis of 2′,3′-cGAMP, AMP-Glo, […] ENPP-1, 24 μM cGAMP.
Setting [8] is: Assay 2 (KI), inhibition of ENPP1 hydrolysis of 2′,3′-cGAMP, no unit in Table 18 (Table 17 legend for this assay uses nM).
The mark [9] stands for this setting: read-out: Assay 1 (IC50), ENPP1 hydrolysis of 2′,3′-cGAMP, AMP-Glo.
Setting [10] is: Assay 1 (IC50), ENPP1 hydrolysis of 2′,3′-cGAMP, AMP-Glo.
Setting [11] is: Assay 1 (IC50), inhibition of ENPP1 hydrolysis of 2′,3′-cGAMP, no unit in Table 18 (Table 17 legend for this assay uses nM).

The values below come from patent US11780849B2, “Imino sulfanone inhibitors of ENPP1” (Volastra Therapeutics, Inc., priority 2020, dated 2023).

Read-outs that look alike come from different tables or passages of the source. Where only a bound is given, the exact number is not on record here.

Sequence of ENPP1 on MDA-MB-231 cells (P22413 whole entry, the tested form may be a part): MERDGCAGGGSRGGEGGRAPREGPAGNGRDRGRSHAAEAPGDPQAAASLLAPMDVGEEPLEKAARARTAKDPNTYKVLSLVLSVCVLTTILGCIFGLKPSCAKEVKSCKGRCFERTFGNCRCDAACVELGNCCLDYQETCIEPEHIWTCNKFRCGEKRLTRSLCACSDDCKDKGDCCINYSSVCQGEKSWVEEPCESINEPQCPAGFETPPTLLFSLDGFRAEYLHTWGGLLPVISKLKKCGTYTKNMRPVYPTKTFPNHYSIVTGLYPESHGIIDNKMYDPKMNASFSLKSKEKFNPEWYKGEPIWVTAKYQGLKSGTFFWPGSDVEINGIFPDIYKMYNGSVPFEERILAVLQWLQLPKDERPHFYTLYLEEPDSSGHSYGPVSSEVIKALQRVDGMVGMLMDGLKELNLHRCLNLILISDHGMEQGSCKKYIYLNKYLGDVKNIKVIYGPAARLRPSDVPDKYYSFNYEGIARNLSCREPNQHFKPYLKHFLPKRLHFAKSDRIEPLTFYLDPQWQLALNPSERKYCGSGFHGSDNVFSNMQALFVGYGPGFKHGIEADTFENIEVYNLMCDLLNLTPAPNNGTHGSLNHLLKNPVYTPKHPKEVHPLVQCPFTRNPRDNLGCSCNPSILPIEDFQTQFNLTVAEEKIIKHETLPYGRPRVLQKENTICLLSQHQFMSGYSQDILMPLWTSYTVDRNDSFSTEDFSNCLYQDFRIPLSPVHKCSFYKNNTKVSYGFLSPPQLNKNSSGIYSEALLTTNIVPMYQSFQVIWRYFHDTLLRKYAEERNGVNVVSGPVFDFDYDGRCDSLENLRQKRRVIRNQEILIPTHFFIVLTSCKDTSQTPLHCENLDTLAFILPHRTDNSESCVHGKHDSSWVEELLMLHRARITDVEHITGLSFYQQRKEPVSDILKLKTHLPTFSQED
T1 sequence (P22413 98-925): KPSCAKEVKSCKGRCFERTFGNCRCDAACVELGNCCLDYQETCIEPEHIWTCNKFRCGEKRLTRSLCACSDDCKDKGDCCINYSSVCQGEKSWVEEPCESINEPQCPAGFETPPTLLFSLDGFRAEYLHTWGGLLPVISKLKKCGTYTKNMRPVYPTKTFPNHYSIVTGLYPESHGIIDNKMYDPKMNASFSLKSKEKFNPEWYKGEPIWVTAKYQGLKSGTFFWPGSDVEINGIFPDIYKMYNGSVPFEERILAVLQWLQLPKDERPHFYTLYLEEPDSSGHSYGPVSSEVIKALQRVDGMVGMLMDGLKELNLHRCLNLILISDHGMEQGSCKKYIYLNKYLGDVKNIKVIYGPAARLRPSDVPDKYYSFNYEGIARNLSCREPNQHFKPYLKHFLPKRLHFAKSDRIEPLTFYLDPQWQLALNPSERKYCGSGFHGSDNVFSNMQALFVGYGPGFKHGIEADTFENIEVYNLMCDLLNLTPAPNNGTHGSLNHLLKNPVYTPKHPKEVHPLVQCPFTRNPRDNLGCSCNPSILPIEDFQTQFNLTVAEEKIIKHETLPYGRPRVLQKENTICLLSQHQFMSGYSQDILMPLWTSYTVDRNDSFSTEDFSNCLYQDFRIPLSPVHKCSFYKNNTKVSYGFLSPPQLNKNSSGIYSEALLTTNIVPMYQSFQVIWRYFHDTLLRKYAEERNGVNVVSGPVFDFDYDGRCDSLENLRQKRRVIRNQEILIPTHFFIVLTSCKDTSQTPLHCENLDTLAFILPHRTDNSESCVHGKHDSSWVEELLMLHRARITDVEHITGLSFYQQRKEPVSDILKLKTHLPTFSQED

On to `COc1cc2ncnc(-c3ccc4c(c3)CN([S@](C)(=N)=O)CC4)c2cc1OC` [Compound 37b], for which the Ki in assay [1] (setting [4]) is 21 nM; on ENPP-1 ECD [2] (setting [5]) it was under 3 nM; on ENPP-1 ECD [2] (setting [6]), 0.28 nM.
The corresponding values for `COc1cc2ncnc(N3CCC(CN[S@@](C)(=N)=O)CC3)c2cc1OC` [Compound 94a] are 46 nM, under 3 nM and 0.78 nM.
Turning to `COc1ccc2c(Oc3ccc(S(C)(=N)=O)cc3)c(C#N)cnc2c1` (stereo not drawn) [Compound 121, 4-{4-[imino(methyl)oxo-λ^6-sulfanyl]phenoxy}-7-methoxyquinoline-3-carbonitrile], the Ki was 250 nM in assay [1], 3 to 300 nM on ENPP-1 ECD [2] (setting [7]) and 4.2 nM on ENPP-1 ECD [2] (setting [8]).
For `COc1ccc2c(Oc3ccc(S(=N)(=O)CC4CC4)cc3)ccnc2c1` (stereo not drawn) [Compound 123, (cyclopropylmethyl)(imino){4-[(7-methoxyquinolin-4-yl)oxy]phenyl}-λ^6-sulfanone] the same measures were 60 nM, under 3 nM and 1.5 nM.
For `COc1ccc2c(Oc3ccc(S(C)(=N)=O)cc3)cc(C)nc2c1` (stereo not drawn) [Compound 124, imino({4-[(7-methoxy-2-methylquinolin-4-yl)oxy]phenyl})methyl-λ^6-sulfanone] the same measures were 30 nM, under 3 nM and 0.73 nM.
In the case of `COc1ccc2c(Oc3ccc(S(=N)(=O)CC(C)(C)O)cc3)ccnc2c1` (stereo not drawn) [Compound 132, (2-hydroxy-2-methylpropyl)(imino){4-[(7-methoxyquinolin-4-yl)oxy]phenyl}-λ^6-sulfanone], the Ki in assay [1] is 45 nM; at ENPP-1 ECD [2] (setting [7]), under 3 nM; on ENPP-1 ECD [2] (setting [8]), 1.1 nM.
For the compound `COc1ccc2c(OCc3cccc([S@](C)(=N)=O)c3)ccnc2c1` [Compound 133b], the Ki at ENPP-1 ECD [2] (setting [5]) is 3 to 300 nM; at ENPP-1 ECD [2] (setting [6]), 49 nM. Also, the IC50 at ENPP-1 ECD [3] (setting [9]) was over 1000 nM; at ENPP-1 ECD [3] (read-out: Assay 1 (IC50), inhibition of ENPP1 hydrolysis of 2′,3′-cGAMP, no unit in Table 18 (Table 17 legend for this assay uses nM)), over 100 nM.
As for `COc1ccc2c(OCc3ccc(S(C)(=N)=O)cc3Br)ccnc2c1` (stereo not drawn) [Compound 137, (3-bromo-4-{[(7-methoxyquinolin-4-yl)oxy]methyl}phenyl)(imino)methyl-λ^6-sulfanone], the Ki was 3 to 300 nM on ENPP-1 ECD [2] (setting [7]) and 38 nM at ENPP-1 ECD [2] (setting [8]). The IC50 against ENPP-1 ECD [3] (setting [10]) was 10 to 1000 nM; at ENPP-1 ECD [3] (setting [11]), 200 nM.
For `COc1ccc2c(N3CCC(CCS(C)(=N)=O)CC3)ncnc2c1` (stereo not drawn) [Compound 139, imino({2-[1-(7-methoxyquinazolin-4-yl)piperidin-4-yl]ethyl})methyl-λ^6-sulfanone] the same measures were under 3 nM, 2.4 nM, 10 to 1000 nM and 15 nM.
For `COc1cccc2c(N3CCC(CCS(C)(=N)=O)CC3)ccnc12` (stereo not drawn) [Compound 140, imino({2-[1-(8-methoxyquinolin-4-yl)piperidin-4-yl]ethyl})methyl-λ^6-sulfanone] the same measures were 3 to 300 nM, 180 nM, 10 to 1000 nM and 880 nM.
For the compound `COc1cc2nccc(N3CCC(CC[S@@](C)(=N)=O)CC3)c2cc1Cl` [Compound 141a], the Ki is 28 nM in assay [1] (setting [4]), under 3 nM at ENPP-1 ECD [2] (setting [5]) and 0.26 nM on ENPP-1 ECD [2] (setting [6]).
Take `COc1ccc2c(N3CCC(CCS(C)(=N)=O)CC3)c(C#N)cnc2c1` (stereo not drawn) [Compound 143, 4-(4-{2-[imino(methyl)oxo-λ6-sulfanyl]ethyl}piperidin-1-yl)-7-methoxyquinoline-3-carbonitrile]: the Ki in assay [1] is 180 nM; at ENPP-1 ECD [2] (setting [7]), under 3 nM; on ENPP-1 ECD [2] (setting [8]), 1 nM.
The corresponding values for `COc1cc2ncc(C#N)c(N3CCC(CCS(C)(=N)=O)CC3)c2cc1OC` (stereo not drawn) [Compound 144, 4-(4-{2-[imino(methyl)oxo-λ6-sulfanyl]ethyl}piperidin-1-yl)-6,7-dimethoxyquinoline-3-carbonitrile] are 19 nM, under 3 nM and 0.28 nM.
For `COc1cccc2c(N3CCC(CS(C)(=N)=O)CC3)ncnc12` (stereo not drawn) [Compound 146, imino({[1-(8-methoxyquinazolin-4-yl)piperidin-4-yl]methyl})methyl-λ^6-sulfanone] the same measures were 15 nM, under 3 nM and 0.36 nM.
As to `COc1cccc2c(N3CCC(C[S@@](C)(=N)=O)CC3)ncnc12` [Compound 146a], the Ki in assay [1] (setting [4]) was found to be 4.5 nM; at ENPP-1 ECD [2] (setting [6]), 0.12 nM.
In the case of `CS(=N)(=O)CCC1CCN(c2ccnc3ccccc23)CC1` (stereo not drawn) [Compound 149, imino(methyl){2-[1-(quinolin-4-yl)piperidin-4-yl]ethyl}-λ^6-sulfanone], the Ki at ENPP-1 ECD [2] (setting [7]) is over 300 nM; at ENPP-1 ECD [2] (setting [8]), 410 nM. In addition, the IC50 is 1400 nM against ENPP-1 ECD [3] (setting [11]) and over 1000 nM on ENPP-1 ECD [3] (setting [9]).
For the compound `COc1cc2ncnc(-c3ccc(CCS(C)(=N)=O)cc3)c2cc1OC` (stereo not drawn) [Compound 153, {2-[4-(6,7-dimethoxyquinazolin-4-yl)phenyl]ethyl}(imino)methyl-λ^6-sulfanone], the Ki at ENPP-1 ECD [2] (setting [7]) is 3 to 300 nM; on ENPP-1 ECD [2] (setting [8]), 12 nM. In addition, the values for the IC50 at ENPP-1 ECD [3] (setting [10]) and on ENPP-1 ECD [3] (setting [11]) were 10 to 1000 nM and 54 nM, respectively.
Consider `COc1cc2nccc(N3CCC4(CC3)CCN(S(C)(=N)=O)C4)c2cc1Cl` (stereo not drawn) [Compound 156, [8-(6-chloro-7-methoxyquinolin-4-yl)-2,8-diazaspiro[4.5]decan-2-yl](imino)methyl-λ^6-sulfanone], for which the Ki in assay [1] was 4.1 nM; at ENPP-1 ECD [2] (setting [7]) it was under 3 nM; on ENPP-1 ECD [2] (setting [8]), 0.03 nM.
With `COc1cc2nccc(N3CCC4(CC3)CCN([S@@](C)(=N)=O)C4)c2cc1Cl` [Compound 156a], the Ki in assay [1] (setting [4]) was 1.7 nM; on ENPP-1 ECD [2] (setting [5]), under 3 nM; on ENPP-1 ECD [2] (setting [6]) it was 0.016 nM.
For `CCS(=N)(=O)N1CCC2(CCN(c3ncnc4cc(OC)c(OC)cc34)CC2)C1` (stereo not drawn) [Compound 159, [8-(6,7-dimethoxyquinazolin-4-yl)-2,8-diazaspiro[4.5]decan-2-yl](ethyl)imino-λ^6-sulfanone], the Ki in assay [1] was 3.6 nM; on ENPP-1 ECD [2] (setting [7]), under 3 nM; on ENPP-1 ECD [2] (setting [8]), 0.025 nM.
As to `COc1cc2ncnc(N3CCC4(CC3)CCN(S(=N)(=O)C3CC3)C4)c2cc1OC` (stereo not drawn) [Compound 160, {cyclopropyl[8-(6,7-dimethoxyquinazolin-4-yl)-2,8-diazaspiro[4.5]decan-2-yl]imino-λ^6-sulfanyl}one], the Ki in assay [1] was 0.45 nM; on ENPP-1 ECD [2] (setting [7]), under 3 nM; on ENPP-1 ECD [2] (setting [8]) it was 0.021 nM.
As to `COc1cc2ncnc(N3CCC4(CC3)CCN([S@](=N)(=O)C3CC3)C4)c2cc1OC` [Compound 160a], the values for the Ki (in assay [1] (setting [4]); at ENPP-1 ECD [2] (setting [6])) were 0.22 nM and 0.007 nM, respectively.
Regarding `COc1cc2nccc(-c3ccc4c(c3)CN([S@@](C)(=N)=O)CC4)c2cc1OC` [Compound 161a], the Ki in assay [1] (setting [4]) is 5.2 nM; on ENPP-1 ECD [2] (setting [5]) it was under 3 nM; on ENPP-1 ECD [2] (setting [6]) it was 0.015 nM.
For the compound `COc1ccc2c(-c3ccc(CNS(C)(=N)=O)cc3)ccnc2c1` (stereo not drawn) [Compound 162, N-{[4-(7-methoxyquinolin-4-yl)phenyl]methyl}methanesulfonoimidamide], the Ki on ENPP-1 ECD [2] (setting [7]) is 3 to 300 nM; at ENPP-1 ECD [2] (setting [8]), 6.9 nM. In addition, the half-inhibitory concentration (IC50) against ENPP-1 ECD [3] (setting [10]) is 10 to 1000 nM; against ENPP-1 ECD [3] (setting [11]) it was 40 nM.
On to `COc1ccc2c(N3CCC(CCS(C)(=N)=O)CC3)ncnc2c1OC` (stereo not drawn) [Compound 165, (2-(1-(7,8-dimethoxyquinazolin-4-yl)piperidin-4-yl)ethyl)(imino)(methyl)-l6-sulfanone], for which the Ki on ENPP-1 ECD [2] (setting [7]) is over 300 nM; on ENPP-1 ECD [2] (setting [8]), 1400 nM. Besides, the IC50 is over 30000 nM against ENPP-1 ECD [3] (setting [11]) and over 1000 nM at ENPP-1 ECD [3] (setting [9]).
Regarding `COc1ccc2c(Oc3ccc(S(=N)(=O)C4CN(C(C)=O)C4)cc3)ccnc2c1` (stereo not drawn) [Compound 166, 1-[3-({4-[(7-methoxyquinolin-4-yl)oxy]phenyl}imino-λ^6-sulfanyl)azetidin-1-yl]ethan-1-one], the results for the Ki (in assay [1]; at ENPP-1 ECD [2] (setting [8])) were 230 nM and 3.1 nM, respectively.
The corresponding values for `COc1ccc2c(Oc3ccc(S(C)(=N)=O)cc3)c(C)cnc2c1` (stereo not drawn) [Compound 168, imino({4-[(7-methoxy-3-methylquinolin-4-yl)oxy]phenyl})methyl-λ^6-sulfanone] are 40 nM and 0.84 nM.
The corresponding values for `COc1cc2nccc(OCc3cccc(S(C)(=N)=O)c3)c2cc1F` (stereo not drawn) [Compound 169, (3-{[(6-fluoro-7-methoxyquinolin-4-yl)oxy]methyl}phenyl)(imino)methyl-λ^6-sulfanone] are 1.5 nM and 0.051 nM.
In the case of `COc1cc2nccc(OCc3cccc([S@@](C)(=N)=O)c3)c2cc1F` [Compound 169a], the Ki is over 190 nM in assay [1] (setting [4]) and 15 nM on ENPP-1 ECD [2] (setting [6]).
For `COc1cc2nccc(OCc3cccc([S@](C)(=N)=O)c3)c2cc1F` [Compound 169b] the same measures were 1.5 nM and 0.018 nM.
Consider `COc1ccc2c(OCc3cc(S(C)(=N)=O)co3)ccnc2c1` (stereo not drawn) [Compound 170, imino(5-{[(7-methoxyquinolin-4-yl)oxy]methyl}furan-3-yl)methyl-λ^6-sulfanone], for which the Ki in assay [1] was determined as 25 nM; at ENPP-1 ECD [2] (setting [8]), 0.7 nM.
